Laboratory results taken from the NIST ThermoML archive (doi:10.1016/j.tca.2011.08.013).

What was measured:
[1] = xn = mol fraction of the nth substance listed; settings: 101 kPa, Liquid; for viscosity: Capillary tube (Ostwald / Ubbelohde) method; for speed of sound: Linear variable-path acoustic interferometer; for mass density: Pycnometric method
[2] = Liquid; for viscosity: Capillary tube (Ostwald / Ubbelohde) method; for speed of sound: Linear variable-path acoustic interferometer; for mass density: Pycnometric method
[3] = mn = molality of the nth substance listed, in mol/kg; settings: 101 kPa, Liquid; for viscosity: Capillary tube (Ostwald / Ubbelohde) method; for speed of sound: Linear variable-path acoustic interferometer; for mass density: Pycnometric method

C[S+](C)[O-] [dimethyl sulfoxide] + O
[1]
Settings	mass density [kg/m3]	speed of sound [m/s]	viscosity [mPa·s]
303.15 K, x1 = 0.0121	1002	1534.6	0.9
303.15 K, x1 = 0.0255	1008	1556.6	0.979
303.15 K, x1 = 0.0424	1015.3	1580	1.089
303.15 K, x1 = 0.0583	1021.4	1602.7	1.224
308.15 K, x1 = 0.0121	1000.3	1541.3	0.805
308.15 K, x1 = 0.0255	1006.4	1561.7	0.888
308.15 K, x1 = 0.0424	1013.6	1583.1	0.988
308.15 K, x1 = 0.0583	1019.3	1603.5	1.102
313.15 K, x1 = 0.0121	998.5	1546.2	0.729
313.15 K, x1 = 0.0255	1004.4	1566	0.806
313.15 K, x1 = 0.0424	1011.4	1586.1	0.887
313.15 K, x1 = 0.0583	1017.6	1604.9	1.002
318.15 K, x1 = 0.0121	996.2	1552.4	0.667
318.15 K, x1 = 0.0255	1002.3	1569.7	0.735
318.15 K, x1 = 0.0424	1009.3	1587.2	0.808
318.15 K, x1 = 0.0583	1015.3	1603.3	0.903

O [water]
[2], 101 kPa
Settings	speed of sound [m/s]	viscosity [mPa·s]
303.15 K	1512	0.797
308.15 K	–	0.719
313.15 K	1528	0.653
318.15 K	1535.2	0.597

[F-].[K+] [potassium fluoride] + O
[3]
Settings	mass density [kg/m3]	speed of sound [m/s]	viscosity [mPa·s]
303.15 K, m1 = 0.05	998.2	1515.5	0.805
303.15 K, m1 = 0.1	1000.4	1518.9	0.811
303.15 K, m1 = 0.15	1002.6	1522.1	0.819
303.15 K, m1 = 0.2	1004.7	1525.8	0.827
308.15 K, m1 = 0.05	996.6	1524	0.726
308.15 K, m1 = 0.1	998.8	1526.9	0.734
308.15 K, m1 = 0.15	1001	1530.5	0.741
308.15 K, m1 = 0.2	1003.2	1534	0.745
313.15 K, m1 = 0.05	994.7	1531.4	0.66
313.15 K, m1 = 0.1	997	1536.1	0.668
313.15 K, m1 = 0.15	999.1	1538.6	0.672
313.15 K, m1 = 0.2	1001.2	1542.4	0.679
318.15 K, m1 = 0.05	992.7	1538.6	0.604
318.15 K, m1 = 0.1	994.8	1543.4	0.612
318.15 K, m1 = 0.15	997	1546.2	0.615
318.15 K, m1 = 0.2	999.2	1549.4	0.622

C[S+](C)[O-] [dimethyl sulfoxide]
[2], 101.33 kPa
Settings	mass density [kg/m3]	speed of sound [m/s]	viscosity [mPa·s]
308.15 K	1085.9	1457.9	1.655
318.15 K	1075.6	1423.4	1.392
